Source: PubChem BioAssay (NCI)
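These data come from cells grown in 96-well plates and exposed to compound for 48 hours at five concentrations. GI50 is the concentration that inhibits growth by half. TGI denotes the concentration required for complete inhibition of growth.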

What was measured:
Test in all cases: NCI-60 cell line screen, 48 h
[1] = tested on: OVCAR-4 ovarian
[2] = tested on: M14 melanoma
[3] = tested on: DU-145 prostate
[4] = tested on: HS 578T breast
[5] = tested on: SF-268 CNS
[6] = tested on: K-562 leukemia
[7] = tested on: OVCAR-5 ovarian
[8] = tested on: NCI-H226 lung
[9] = tested on: 786-0 renal
[10] = tested on: KM20L2 colon
[11] = tested on: RXF-631 renal
[12] = tested on: DMS 114 small cell lung

| SMILES | TGI [1] [µM] | TGI [2] [µM] | TGI [3] [µM] | TGI [4] [µM] | TGI [5] [µM] | TGI [6] [µM] | TGI [7] [µM] | TGI [8] [µM] | TGI [9] [µM] | GI50 [1] [µM] | GI50 [2] [µM] | GI50 [3] [µM] | GI50 [4] [µM] | GI50 [5] [µM] | GI50 [6] [µM] | GI50 [7] [µM] | GI50 [8] [µM] | TGI [10] [µM] | TGI [11] [µM] | TGI [12] [µM] |
| --- | --- | --- | --- | --- | --- | --- | --- | --- | --- | --- | --- | --- | --- | --- | --- | --- | --- | --- | --- | --- |
| COc1ccc2c(c1)CCN=C2Cc1cc(OC)c(OC)cc1CCCl | > 100 | > 100 | > 100 | 81.7 | > 100 | > 100 | > 100 | > 100 |  |  |  |  |  |  |  |  |  |  |  |  |
| O=C(C=P(c1ccccc1)(c1ccccc1)c1ccccc1)c1cccc(-c2cccc([N+](=O)[O-])c2)c1 | 15.5 | > 100 | > 100 | > 100 | > 100 | > 100 | > 100 |  | > 100 |  |  |  |  |  |  |  |  |  |  |  |
| CN(c1cc2ncc(=O)[nH]c2cc1NC(N)=NCc1ccc(Cl)cc1)C1CCCCC1 | 17.2 | 14.9 | 14.3 | 16 | 14.7 | 9.73 | 14.1 | 18 |  | 6.21 | 7.36 | 7.56 | 6.53 | 6.89 | 2.38 | 6.58 | 8.1 |  |  |  |
| CCN1C=C/C(=C\C=C/c2cc[n+](CC)c3ccccc23)c2ccccc21 | 16.9 | 16.9 | 26.3 | 24.6 | 19.6 |  | 15.1 | 16 | 18.2 |  |  |  |  |  |  |  |  |  |  |  |
| CCOC(=O)C[C@@H]1C2(C=C[C@@]13CO3)OCC(C)(C)CO2 | 97.4 | > 100 | > 100 | > 100 | > 100 | > 100 | > 100 | > 100 |  |  |  |  |  |  |  |  |  |  |  |  |
| C=CCc1cc(-c2cc(CC=C)c(O)c(CNC)c2)cc(CNC)c1O | 30.4 | 30.5 |  |  | 33.3 | 27.3 |  | 31 | 29 |  |  |  |  |  |  |  |  | 30.8 | 28.8 | 30.4 |
| CCCCCCCCCCCCCCCc1ccc(OCC(O)CO)cc1 (configuration not stated) | 40.8 | 33.4 |  |  | 82.4 | > 100 | > 100 | 58.5 |  |  |  |  |  |  |  |  |  | 94.4 | 71.6 | 68.3 |
| c1ccc(C2CC(c3cccc(Nc4ccncc4)c3)=NN2c2ccccc2)cc1 (configuration not stated) | 3.43 | 3.39 | 4.02 | 3.47 | 3.65 | 6.76 | 3.65 | 28.7 |  | 1.72 | 1.69 | 1.95 | 1.55 | 1.79 | 2.02 | 1.83 | 8.39 |  |  |  |
| CC(C)(C)OC(=O)NCC(=O)NC1c2ccsc2/C(=N/O)[C@H]1O (some centres not stated) | > 100 | > 100 | > 100 |  |  | > 100 | > 100 | > 100 |  |  |  |  |  |  |  |  |  |  |  |  |
| CO/C=C(/C(=O)OC)c1ccccc1[C@@H]1CC1c1cccc(F)c1 (some centres not stated) | 96.7 | 81.6 | > 100 | > 100 | > 100 | > 100 | > 100 | > 100 | > 100 |  |  |  |  |  |  |  |  |  |  |  |
| Cc1nc2c(n1C)C(=O)c1nc(CBr)[nH]c(=O)c1C2=O |  | > 100 |  |  | > 100 | > 100 |  |  |  |  |  |  |  |  |  |  |  | > 100 |  | > 100 |
